Measured values taken from US6057450A, “Derivatives of pyroglutaminic acid preparation process and applications” (Totiam, S.L., priority 1994, dated 2000).

B1: rhG-CSF: recombinant human Granulocyte Colony Stimulating Factor (protein, UniProt P09919 31-207, looked up)
Granulocyte …: TPLGPASSLPQSFLLKCLEQVRKIQGDGAALQEKLVSECATYKLCHPEELVLLGHSLGIPWAPLSSCPSQALQLAGCLSQLHSGLFLYQGLLQALEGISPELGPTLDTLQLDVADFATTIWQQMEELGMAPALQPTQGAMPAFASAFQRRAGGVLVASHLQSFLEVSYRVLRHLAQP

Tests used:
patients = settings: cited from earlier work; for effect on circulating granulocytes: cancer patients in the absence of a myelodepression
human lymphocytes = test: in vitro non-specific lymphoproliferative response (RLP-I) to PHA, human lymphocyte cultures; format: cell-based; settings: for RLP-I B < A, number of witness models / RLP-I B < A, percentage of witness models / RLP-I B > A, number of witness models / RLP-I B > A, percentage of witness models: Table V, PHA + BRM-BLAS (B) versus PHA (A); for number of cases with RLP-I B > A in 33-50% of the witness models / number of cases with RLP-I B > A in 67% of the witness models / number of cases with RLP-I B > A in 100% of the witness models / percentage of cases with RLP-I B > A in 33-50% of the witness models / percentage of cases with RLP-I B > A in 67% of the witness models / percentage of cases with RLP-I B > A in 100% of the witness models: Table VI, intragroup individual analysis
Method: The "in vitro" lymphocyte response has been assessed in samples of circulating and peripheral venous blood from asymptomatic blood donor adults of both sexes. In general, the lymphocyte cultures include in each case six experimental models called witnesses, and incorporate progressive doses between 0.25-6.0 units (20-500 ng) of the BRM-BLAS compounds and PHA. The RLP-I of each one has been morphologically determined and is expressed in absolute values of lymphoblasts/10,000.
Systematically, in all the cases it has been tabulated the RLP-I to the PHA, basal, of the PHA models; to the PHA+BRM-BLAS, of the "witness" models and the maximum individual response of the witness models (RMC), in each case.

[1] = system: circulating peripheral blood lymphocytes; test: in vivo lymphocyte kinetics / response in asymptomatic rabbits; design: species or system New Zealand's albino, giant rabbits
Excerpt: (§1) The pharmacodynamic study to assess the leuko-lymphocyte kinetics has been carried out in New Zealand's albino, giant, female, adult, asymptomatic (healthy) rabbits. The blood samples with EDTA (ethylene-diamino-tetraAcetic acid), non-coagulable, for the periodical weekly controls, have been obtained by aseptic puncture from the marginal vein of the outer ear. The count and the differential cytologic survey of the white series has been routinely performed in a "Coulter" (Coulter Cientifica, S.A., STKs model) differential analyzer, within the two hours following the extraction.
Hereinafter, there is a summary of the most significant results of the preclinical protocols which include different experimental conditions, different BRM-BLAS products and doses which vary in vary of their concentration of the product, frequency and number. […]
This study comprises three concatenated experimental situations. The first one is focused on the vicissitudes of the leuko-lymphocyte kinetics occurred during a pause, "first" moment, that takes place months after several doses, mainly of BRM-BLAS 236 (Cl) compounds and includes 30 individual assessments (6 of the group) days 0 to 39. The second "second" moment, is centered on the successive changes occurred after the administration on the 39th day of an intravenous dose of 8 u/Kg (0.6 mcg/Kg) of the BRM-BLAS 278 (Ac) compounds and includes a total of 25 individual assessments (5 of the group), days 43rd to 68th. The third one, moments "third" to "seventh", analyzes the changes induced after the intravenous administration on the 68th day of 22 u/Kg (1.8 mcg/Kg) of BRM-BLAS 320 (Ac) compounds and includes […] (6 of the group×5 times), days 75th to 287th of the study. The assessment prior to the last dose, the lymphocyte average of which is the lowest of the group during the study, has been selected as the common baseline (100%) for reference of the comparative analysis between the assessments.

[2] = system: circulating peripheral blood leukocytes; test: in vivo leukocyte kinetics / response in asymptomatic rabbits; design: species or system New Zealand's albino, giant rabbits; settings: s.c. 30 u/Kg
Excerpt: as §1
Hereinafter, there is a summary of the most significant results of the preclinical protocols which include different experimental conditions, different BRM-BLAS products and doses which vary in vary of their concentration of the product, frequency and number.
The leuko-lymphocyte mean values of the group run parallelly during the study, in general above the respective basal values before the treatment to which they return in the last two assessments. They reach the higher ones 7, 16 and 20 days after the first, second and third dose, FIG. 12, FIG. 13 and Table VIII (assessments: 3, 8 and 13).
A total number of 225 individual assessments and 45 of the group assessments have been performed, grouped in four evolutive periods moments. The "first" one includes the 40 individual assessments (8 of the group) after the two first doses, days 0 to 43rd; the "second", the 85 (17 of the group) after the third, fourth and fifth doses, days 46th to 147th; the "third", the first 50 (10 of the group) after the sixth, days 153rd to 213th, and the "fourth", the last 50 (10 of the group), days 220th to 282nd, respectively. The assessment of the group prior to the third dose (43rd day), the lymphocyte mean of which has been the lowest during the survey, has been taken as the natural reference baseline for the comparative analysis of punctual and grouped data.
This trail is subsequent to the protocol previously described and corresponds to the "fifth" moment of the global study, FIG. 14 and FIG. 15.
After the subcutaneous administration of a dose of 30 u/Kg (2.1 mcg/Kg) of the BRM-BLAS 278 (Cl) compounds 137 days after the sixth dose of the BRM-BLAS 320 (Ac) compounds, in the presence of high figures of the lymphocyte mean of the group, at the "fourth" moment, such figures were specifically exceeded by the 4th and 5th punctual weekly assessments of the "fifth" moment, 24th (184%) and 31st (180%) days, respectively, FIG. 14. Globally, 28% of the assessment exceed basal values by one or two standard deviations; 57% in three, and the difference is statistically in all of them. The resulting mean of the data gathered for the "fifth" moment with a 158% of the basal values, exceed those of the four previous moments, and the difference is statistically significant compared with those of the "first", "second" and "third", and exceeds that of the "first" in more than one standard deviation, FIG. 15 and (Table IX). […]

Swiss mice = test: single-dose intraperitoneal toxicity in mice; settings: i.p. single dose; 236 (Cl) 800 mcg/Kg, 278 (Ac) 4.2 mg/Kg, 320 (Ac) 4.8 mg/Kg, respectively

| Molecule | effect on circulating granulocytes (patients) | RLP-I B < A, number of witness models (human lymphocytes) [Num.] | RLP-I B < A, percentage of witness models (human lymphocytes) [%] | RLP-I B > A, number of witness models (human lymphocytes) [Num.] | RLP-I B > A, percentage of witness models (human lymphocytes) [%] | number of cases with RLP-I B > A in 33-50% of the witness models (human lymphocytes) [Num.] | number of cases with RLP-I B > A in 67% of the witness models (human lymphocytes) [Num.] | number of cases with RLP-I B > A in 100% of the witness models (human lymphocytes) [Num.] | percentage of cases with RLP-I B > A in 33-50% of the witness models (human lymphocytes) [%] | percentage of cases with RLP-I B > A in 67% of the witness models (human lymphocytes) [%] | percentage of cases with RLP-I B > A in 100% of the witness models (human lymphocytes) [%] | also measured |
| --- | --- | --- | --- | --- | --- | --- | --- | --- | --- | --- | --- | --- |
| rhMG-CSF: recombinant human Macrophage Granulocyte Colony Stimulating Factor | neutrophiles and eosinophile | – | – | – | – | – | – | – | – | – | – | duration of the neutropenia (patients; administration prior to chemotherapy): notably reduces the duration of the neutropenia; side effects (patients; human, in vivo): fever, bone ache, pericarditis, hypotension; deaths from sepsis (patients; patients who received rhMG-CSF): 2 out of 14; systemic bacterial and viral infections (patients; severe chronic neutropenia or after transplant of bone marrow): drastically decreases systemic bacterial and viral infections |
| CC(=O)N1C(=O)C(N)(C[n+]2ccccc2)CC1C(=O)O (centres unmarked) [BRM-BLAS 278 (Cl), 1-acetyl-4-ammonium-4-(1-pyridiniomethyl) pyroglutamic acid dichloride] | – | 16 | 17 | 77 | 83 | 16 | 13 | 6 | 100 | 81 | 37 | animals with lymphocyte mean "fifth" versus "first" moment higher than three standard deviations ([1]; s.c. 30 u/Kg): 80%; animals with lymphocyte mean "fifth" versus "first" moment higher than two standard deviations ([1]; s.c. 30 u/Kg): 20%; grouped lymphocyte mean versus basal, "fifth" moment ([1]; s.c. 30 u/Kg, "fifth" moment): 158%; lymphocyte mean versus basal, 24th day ([1]; s.c. dose 30 u/Kg (2.1 mcg/Kg) 137 days after BRM-BLAS 320 (Ac), 24th day, "fifth" moment): 184%; lymphocyte mean versus basal, 31st day ([1]; s.c. dose 30 u/Kg (2.1 mcg/Kg) 137 days after BRM-BLAS 320 (Ac), 31st day, "fifth" moment): 180%; animals with leukocyte mean at "fifth" exceeding "first" moment by more than two standard deviations [2]: 40%; assessments with leukocyte mean exceeding basal by one standard deviation ([2]; "fifth" moment): 57%; assessments with statistically significant leukocyte difference ([2]; "fifth" moment): 29% |
| CC(=O)N1C(=O)C(N)(C[n+]2ccccc2)CC1C(=O)O (centres unmarked) [BRM-BLAS 278 (Ac), 1-acetyl-4-amino-4-(1-pyridiniomethyl) pyroglutamic acid acetate] | – | 14 | 26 | 40 | 74 | 9 | 6 | 3 | 100 | 67 | 33 | lymphocyte group mean after low dose ([1]; single i.v. low dose 8 u/Kg (0.6 mcg/Kg), fifth assessment): the group mean in the fifth assessment appears in the basal line of the histogram; tolerance / toxicity, single dose (Swiss mice): perfectly tolerated without evidences of toxicity |
| NC1(C[n+]2ccccc2)CC(C(=O)O)NC1=O (centres unmarked) [BRM-BLAS 236 (Ac), 4-amino-4-(1-pyridiniomethyl) pyroglutamic acid acetate] | – | – | – | – | – | – | 12 | – | 100 | 82 | – | RLP-I B < A, number of witness models (human lymphocytes; acetate): 17 Num.; RLP-I B < A, percentage of witness models (human lymphocytes; acetate): 19%; RLP-I B > A, number of witness models (human lymphocytes; acetate): 73 Num.; RLP-I B > A, percentage of witness models (human lymphocytes; acetate): 81%; number of cases with RLP-I B > A in 33-50% of the witness models (human lymphocytes; acetate): 15 Num.; number of cases with RLP-I B > A in 100% of the witness models (human lymphocytes; acetate): 6 Num.; percentage of cases with RLP-I B > A in 100% of the witness models (human lymphocytes; acetate): 40% |
| CC(=O)NC1(C[n+]2ccccc2)CC(C(=O)O)N(C(C)=O)C1=O (centres unmarked) [BRM-BLAS 320 (Cl), 1-acetyl-4-acetylamino-4-(1-pyridiniomethyl) pyroglutamic acid chloride] | – | 29 | 30 | 67 | 70 | 16 | 11 | 2 | 100 | 69 | 13 | – |
| B1 | great increase in the number of circulating (peripheral blood) polymorphonuclear neutrophile | – | – | – | – | – | – | – | – | – | – | – |
